Reference: patent publication US8524911B2, “3-arylamino pyridine derivatives” (Merck Serono SA, priority 2004, dated 2013)

Experiments:
[1] = tested on: Murine colon C26 cells; test: Tumor cell proliferation assay (ATP Lite), C26; type: cell-based; conditions: Mus musculus, 96 h, 4 days
Method: (§1) Assay 2: Tumor Cell Proliferation Assays (ATP Lite)
(§2) Murine colon C26, human melanoma A375 and MeI5 or human pancreatic MiaPaCa-2 cells were plated in 96 well Corning white plates (1500 cells/well for C26, and 2000 cells/well for A375, and MiaPaCa-2) and cultured overnight at 37° C. in 5% CO2. Inhibitors were serially diluted in 100% DMSO and subsequently added to cells to reach a final concentration of 0.25% DMSO. The cells were incubated for 4 days in the presence of test compounds in cell growth media (DMEM with 10% fetal bovine serum, 2 mM glutamine for C26, and MiaPaCa-2, and RPMI with 10% fetal bovine serum, 2 mM glutamine for A375). Cell proliferation was quantitated using the ATP lite cell proliferation kit (Packard). Columns 4-6 show the concentration of compounds required to induce 50% cell death (IC50 in μM) of […]. With “+” meaning 3 μM<IC50≦10 μM and “++” IC50≦3 μM and “n.d.” means not determined. Few compounds were also tested on human melanoma cell MeI5.

[2] = tested on: human melanoma A375 cells; test: Tumor cell proliferation assay (ATP Lite), A375; type: cell-based; conditions: A-375, 96 h, 4 days
Method: as §1, §2

[3] = target: human MEK1 (Homo sapiens, UniProt Q02750); test: MEK-1 Enzyme Assay (LANCE-HTRF); type: biochemical; conditions: 100 nM MEK1, 15 μM ATP, 300 nM ERK2, two hours; read-out: MEK inhibition
Chain of human MEK1 (Q02750 whole entry): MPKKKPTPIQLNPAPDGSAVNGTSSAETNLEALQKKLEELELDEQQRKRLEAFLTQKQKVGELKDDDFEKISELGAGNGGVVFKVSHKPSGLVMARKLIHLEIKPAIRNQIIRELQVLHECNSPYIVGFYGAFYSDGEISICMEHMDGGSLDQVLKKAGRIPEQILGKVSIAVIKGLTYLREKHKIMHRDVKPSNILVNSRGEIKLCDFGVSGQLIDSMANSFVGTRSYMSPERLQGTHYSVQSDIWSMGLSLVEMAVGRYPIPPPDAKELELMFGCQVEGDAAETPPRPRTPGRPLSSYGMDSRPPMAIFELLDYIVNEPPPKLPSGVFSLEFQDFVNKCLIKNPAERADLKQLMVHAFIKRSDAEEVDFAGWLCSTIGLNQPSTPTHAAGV
Method: Assay 1: MEK-1 Enzyme Assay (LANCE-HTRF)
The activity of the compounds of the present invitation may be determined by the following procedure; Inhibition of human MEK1 kinase activity was monitored with a homogenous, fluorescence based assay. The assay uses time resolved fluorescence resonance energy transfer to probe for phosphorylation of ERK1 by MEK1. The assay is carried out in low volume 96 well microtiterplates. […] After two hours, 5 nM Europium-anti-PY20 (Perkin Elmer) and 50 nM Anti-GST-Allophycocyanin (CisBio) in buffer containing 50 mM EDTA and 0.05% BSA are added and the reaction incubated for one hour in the dark. Time-resolved fluorescence is measured using a LJL-Analyst (Molecular Devices) with an excitation wavelength of 340 nm and an emission wavelength of 665 nm. The final concentration of DMSO is 2%.

[4] = tested on: human pancreatic MiaPaCa-2 cells; test: Tumor cell proliferation assay (ATP Lite), MiaPaCa-2; type: cell-based; conditions: MIA PaCa-2, 96 h, 4 days
Method: as §1, §2

| IC50 [1] [µM] | IC50 [2] [µM] | IC50 [3] [nM] | IC50 [4] [µM] | Structure (SMILES) |
| --- | --- | --- | --- | --- |
| ≤ 3 | ≤ 3 | < 1000 | ≤ 3 | O=C(NOC[C@H](O)CO)c1ccncc1Nc1ccc(I)cc1F [Example 7, N-{[(2R)-2,3-dihydroxypropyl]oxy}-3-[(2-fluoro-4-iodophenyl)-amino]isonicotin-amide] |
| ≤ 3 | ≤ 3 | < 1000 | ≤ 3 | O=C(NOC[C@H](O)CO)c1ccncc1Nc1ccc(I)cc1Cl [Example 8, 3-[(2-chloro-4-iodophenyl)amino]-N-{[(2R)-2,3-dihydroxypropyl]oxy}-isonicotinamide] |
| 3 to 10 | ≤ 3 | < 1000 | ≤ 3 | COC(=O)c1ccncc1Nc1ccc(I)cc1Cl [Example 10, Methyl 3-[(2-chloro-4-iodophenyl)amino]isonicotinate] |
| ≤ 3 | ≤ 3 | < 1000 | ≤ 3 | NC(=O)c1ccncc1Nc1ccc(I)cc1Cl [Example 11, 3-[(2-chloro-4-iodophenyl)amino]isonicotinamide] |
| ≤ 3 | ≤ 3 | < 1000 | ≤ 3 | NC(=O)c1ccncc1Nc1ccc(I)cc1F [Example 12, 3-[(2-fluoro-4-iodophenyl)amino]isonicotinamide] |
| ≤ 3 | ≤ 3 | < 1000 | ≤ 3 | O=C(NCCN1CCOCC1)c1ccncc1Nc1ccc(I)cc1F [Example 13, 3-(2-Fluoro-4-iodo-phenylamino)-N-(2-morpholin-4-yl-ethyl)-isonicotinamide] |
| ≤ 3 | ≤ 3 | < 1000 | ≤ 3 | CC(O)CNC(=O)c1ccncc1Nc1ccc(I)cc1F (stereo not shown) [Example 14, 3-[(2-fluoro-4-iodophenyl)amino]-N-(2-hydroxypropyl)-isonicotinamide] |
| ≤ 3 | ≤ 3 | < 1000 | ≤ 3 | O=C(NCCO)c1ccncc1Nc1ccc(I)cc1F [Example 15, 3-(2-Fluoro-4-iodo-phenylamino)-N-(2-hydroxy-ethyl)-isonicotinamide] |
| ≤ 3 | ≤ 3 | < 1000 | ≤ 3 | COCCNC(=O)c1ccncc1Nc1ccc(I)cc1F [Example 16, 3-(2-Fluoro-4-iodo-phenylamino)-N-(2-methoxy-ethyl)-isonicotinamide] |
| ≤ 3 | ≤ 3 | < 1000 | ≤ 3 | O=C(c1ccncc1Nc1ccc(I)cc1F)N1CCOCC1 [Example 17, [3-(2-Fluoro-4-iodo-phenylamino)-pyridin-4-yl]-morpholin-4-yl-methanone] |
| ≤ 3 | ≤ 3 | < 1000 | ≤ 3 | CCNC(=O)c1ccncc1Nc1ccc(I)cc1F [Example 18, N-ethyl-3-[(2-fluoro-4-iodophenyl)amino]isonicotinamide] |
| 3 to 10 | ≤ 3 | < 1000 | ≤ 3 | O=C(NN1CCCCC1)c1ccncc1Nc1ccc(I)cc1F [Example 19, 3-[(2-fluoro-4-iodophenyl)amino]-N-piperidin-1-ylisonicotinamide] |
| ≤ 3 | ≤ 3 | < 1000 | ≤ 3 | O=C(NCCCn1ccnc1)c1ccncc1Nc1ccc(I)cc1F [Example 20, 3-[(2-fluoro-4-iodophenyl)amino]-N-[3-(1H-imidazol-1yl)propyl]-isonicotinamide] |
| – | 3 to 10 | 1000 to 10000 | – | C#Cc1ccc(Nc2cnccc2C(=O)NOC[C@H](O)CO)c(Cl)c1 [Example 54, 3-(2-Chloro-4-ethynyl-phenylamino)-N-(2,3-dihydroxy-propoxy)-isonicotinamide] |
| – | 3 to 10 | < 1000 | – | O=C(NC1CCCCC1)c1ccncc1Nc1ccc(I)cc1F [Example 61, N-cyclohexyl-3-[(2-fluoro-4-iodophenyl)amino]isonicotinamide] |
| 3 to 10 | ≤ 3 | < 1000 | – | CC(C)C(C)NC(=O)c1ccncc1Nc1ccc(I)cc1F (stereo not shown) [Example 62, N-(1,2-dimethylpropyl)-3-[(2-fluoro-4-iodophenyl)amino]-isonicotinamide] |
| – | ≤ 3 | < 1000 | – | CC1(C)OC[C@@H](CONC(=O)c2ccncc2Nc2ccc(I)cc2F)O1 [Example 63, N-{[(4S)-2,2-dimethyl-1,3-dioxolan-4-yl]methoxy}-3-[(2-fluoro-4-iodophenyl)amino]isonicotinamide] |
| – | ≤ 3 | < 1000 | – | O=C(NO)c1ccncc1Nc1ccc(I)cc1F [Example 66, 3-[(2-fluoro-4-iodophenyl)amino]-N-hydroxyisonicotinamide] |

| IC50 [1] [µM] | IC50 [2] [µM] | IC50 [3] [nM] | IC50 [4] [µM] | Structure (SMILES) |
| --- | --- | --- | --- | --- |
| 3 to 10 | ≤ 3 | < 1000 | – | CC1(C)OC[C@H](CONC(=O)c2cc(Br)ncc2Nc2ccc(I)cc2F)O1 [Example 69, 2-bromo-N-{[(4R)-2,2-dimethyl-1,3-dioxolan-4-yl]methoxy}-5-[(2-fluoro-4-iodophenyl)amino]isonicotinamide] |
| 3 to 10 | ≤ 3 | < 1000 | – | CC(C)CONC(=O)c1ccncc1Nc1ccc(I)cc1Cl [Example 78] |
| – | ≤ 3 | < 1000 | 3 to 10 | CONC(=O)c1ccncc1Nc1ccc(I)cc1Cl [Example 80, N-methoxy-3-(2-chloro-4-iodo-phenylamino)-isonicotinamide] |
| 3 to 10 | ≤ 3 | < 1000 | – | O=C(NOC1CCCCO1)c1ccncc1Nc1ccc(I)cc1F (stereo not shown) [Example 84, 3-[(2-fluoro-4-iodophenyl)amino]-N-(tetrahydro-2H-pyran-2-yloxy)-isonicotin-amide] |
| – | ≤ 3 | < 1000 | 3 to 10 | COCCNC(=O)c1cc(Br)ncc1Nc1ccc(I)cc1F [Example 87, 2-Bromo-5-(2-fluoro-4-iodo-phenylamino)-N-(2-methoxy-ethyl)-isonicotinamide] |
| – | 3 to 10 | < 1000 | – | O=C(NCc1cccc(I)c1)c1ccncc1Nc1ccc(I)cc1F [Example 94, 3-[(2-fluoro-4-iodophenyl)amino]-N-(3-iodobenzyl)isonicotin-amide] |
| – | – | < 1000 | – | O=C(NCC(F)(F)F)c1ccncc1Nc1ccc(I)cc1F [Example 109, 3-(2-Fluoro-4-iodo-phenylamino)-N-(2,2,2-trifluoro-ethyl)-isonicotinamide] |
| – | – | < 1000 | – | O=C(NC1(CO)CCCC1)c1ccncc1Nc1ccc(I)cc1F [Example 110, 3-(2-Fluoro-4-iodo-phenylamino)-N-(1-hydroxymethyl-cyclo-pentyl)-isonicotinamide] |
| – | – | < 1000 | – | Cc1cc(C(=O)O)c(Nc2ccc(I)cc2F)cn1 [Example 111, 5-[(2-fluoro-4-iodophenyl)amino]-2-methylisonicotinic acid] |
| – | – | < 1000 | – | NC(=O)[C@H](CO)NC(=O)c1ccncc1Nc1ccc(I)cc1F [Example 112, N-(1-(S)-Carbamoyl-2-hydroxy-ethyl)-3-(2-fluoro-4-iodo-phenylamino)-isonicotinamide] |
| – | – | < 1000 | – | CCC(CO)(CO)NC(=O)c1ccncc1Nc1ccc(I)cc1F [Example 114, N-(1,1-Bis-hydroxymethyl-propyl)-3-(2-fluoro-4-iodo-phenyl-amino)-isonicotin-amide] |
| – | – | < 1000 | – | O=C(NCCCN1CCNCC1)c1ccncc1Nc1ccc(I)cc1F [Example 116, 3-(2-Fluoro-4-iodo-phenylamino)-N-(3-piperazin-1-yl-propyl)-isonicotinamide] |
| – | – | 1000 to 10000 | – | COc1ccc(Nc2cnccc2C(=O)O)cc1 [Example 118, 3-(4-Methoxy-phenylamino)-isonicotinic acid] |
| – | – | 1000 to 10000 | – | O=C(O)c1ccncc1Nc1ccc(SC(F)(F)F)cc1 [Example 119, 3-(4-Trifluoromethylsulfanyl-phenylamino)-isonicotinic acid] |
| – | – | < 1000 | – | CCONC(=O)c1ccncc1Nc1ccc(Br)cc1F [Example 121, 3-[(4-Bromo-2-fluorophenyl)amino]-N-ethoxyisonicotinamide] |
| – | – | < 1000 | – | O=C(O)c1ccnc(Cl)c1Nc1ccc(Br)cc1F [Example 125, 3-(4-Bromo-2-fluoro-phenylamino)-2-chloro-isonicotinic acid] |
| – | – | 1000 to 10000 | – | O=c1[nH]nc(-c2ccncc2Nc2ccc(Br)cc2F)o1 [Example 126, 5-[3-(4-Bromo-2-fluoro-phenylamino)-pyridin-4-yl]-3H-[1,3,4]oxadiazol-2-one] |
